Source: patent US20230139328A1, “DOSAGE FORMS FOR IMPROVING ORGAN TRANSPLANTATION, GRAFT VERSUS HOST DISEASE AND STEM CELLS TRANSPLANTS” (Aphios Corporation, priority 2020, published 2023)

System: neutrophil migration across HUVEC
Assay: Neutrophil transendothelial migration (TEM) restoration studies with PKC inhibitors in HUVEC
Format: cell-based, human
Details: for restoration of PMN TEM in response to LTB4 after PKC activator treatment: PKC inhibitor 30 min (1, 10, 100 nM) then 100 nM Bryostatin-1 1 h
Description: HUVEC were pretreated with G0-6983, a PKC inhibitor with dose dependent specificities for classical vs. novel PKC isoforms for 30 minutes prior to addition of Bryostatin-1 (100 nM) to block neutrophil migration. […] Neutrophil migration towards 100 nM LTB4 was initiated by adding LTB4 to the lower well.
Neutrophil Transendothelial Migration (TEM) Restoration Studies: HUVECs were pretreated with Go-6983 (1, 10, 100 nM), or Go-6976 (1, 10,100 nM) for 30 minutes, then spiked with 100 nM Bryostatin-1 for 1 hour. HUVECs previously nucleofected with PKC-δ, -ε, or control siRNA were just treated in Bryostatin-1 for 1 hour. HUVECs were washed three times and placed in a new plate containing either 500 IL 100 nM LTB4, or HBSS alone for control. Neutrophils were allowed to migrate for 3 h at 37° C. Migration was stopped by removing the inserts and migration was measured using the MPO assay.
Myeloperoxidase Assay: Neutrophil migration was measured using myeloperoxidase (MPO) analysis. Cell culture inserts were first removed, and plates were spun at 1,500 RPM for 5 min. The supernatant was removed, and MPO activity was measured using TMB/peroxide as chromogen. The reaction was stopped with sulfuric acid and absorbance was read at 450 nm using a microplate reader. All experiments were performed n=6. Data was expressed as “% neutrophil migration”, which allowed cumulative statistical analysis to be done and account for unpreventable batch-to-batch variations.

Row | Structure (SMILES) | restoration of PMN TEM in response to LTB4 after PKC activator treatment | effect of inhibitor pretreatment on Bryostatin-1 mediated reduction in migration towards LTB4, 1 nM (1 nM inhibitor 30 min before 100 nM Bryostatin-1) | effect of inhibitor pretreatment on Bryostatin-1 mediated reduction in migration towards LTB4, 10 or 100 nM (10 or 100 nM inhibitor 30 min before 100 nM Bryostatin-1) | restoration of PMN TEM in response to LTB4 after PKC activator treatment (listed as G0-6983)
1 | CN(C)CCCn1cc(C2=C(c3c[nH]c4ccccc34)C(=O)NC2=O)c2ccccc21 [GF10923X] | did not restore PMN TEM |  |  | 
2 | Cn1c2ccccc2c2c3c(c4c5ccccc5n(CCC#N)c4c21)CNC3=O [GO-6976] | did not restore PMN TEM |  |  | 
3 | COc1ccc2c(c1)c(C1=C(c3c[nH]c4ccccc34)C(=O)NC1=O)cn2CCCN(C)C [Go-6983] | dose dependently restored neutrophil migration | but not by 1 nM G06983 | prevented | dose dependently reversed
4 | CC(=O)c1c(O)c(C)c(O)c(Cc2c(O)c3c(c(C(=O)/C=C/c4ccccc4)c2O)OC(C)(C)C=C3)c1O [Rottlerin] | did not restore PMN TEM |  |  | 
5 | CN[C@@H]1C[C@H]2O[C@@](C)([C@@H]1OC)n1c3ccccc3c3c4c(c5c6ccccc6n2c5c31)C(=O)NC4 [staurosporine] | did not restore PMN TEM |  |  | 
